From US8779779B2, “On-chip cell migration detection” (CapitalBio Corporation, priority 2008, dated 2014) come the findings set out here.

The test has as its system Vero-E6 cells. The test can be described thus: Real time inhibition assay of cell migration (on-chip SAM wound edge with cellular impedance sensing). Format: cell-based. Here is the method: For at least one of the electrodes, the surface is treated with a chemical coating that inhibits cell adhesion onto the electrode (302). This generates a chemical coat-modified surface on the electrodes. The chemical coating maintains contact with the surface of the electrodes until desorbed by application of an electrical signal capable of desorbing the coating. The chemical coating can be applied by contacting the electrodes with a solution or suspension of coating material in a carrier, or by contacting the electrode with the coating material without a carrier. A background impedance value is measured in absence of cells (304). After measuring the background impedance (Z0), target cells are added to the device (306). A layer of cells is allowed to grow on the surface of the device (308). […] As a result, all the cells grow on the surface of the SiO2 insulation substrate forming a cell monolayer. After incubation, wound edges are formed automatically on the device. Once the cells have grown over the surfaces, an electrical signal is applied to the electrodes, which causes the chemical coating to desorb from the electrodes (310). This provides a cell-free electrode surface surrounded by cells growing on the adjacent insulation. The cell impedance (Zx) is monitored in real-time as the cells grow or migrate across the electrodes (312). Cells growing on the electrodes can cause measurable changes in the electrical properties of the circuit, e.g., impedance; consequently, the rate of cell migration or spreading can be monitored by monitoring electrical properties of the electrodes. The final impedance data is normalized as Zx/Z0 (314). The normalized impedance data reflects the impedance variation induced by the attachment of the cells.
For illustrative purposes, the process 300 is described using an example protocol for monitoring cell migration. An example protocol includes preparing an impedance measuring device (e.g., device 100) for impedance measurement by sterilizing the device. After sterilization, (e.g., in 75% ethanol for 20 minutes and then exposure to UV irradiation for another 30 minutes), a thiol compound is added to the microfluidic cavities. Thiol compound (HS(CH2)11(OCH2CH2)6OH (abbreviated as “EG6”) is obtained from Sigma-Aldrich (St. Louis, Mo.). EG6 (1.5 mM in ethanol) can be added to each microfluidic cavity of the device using a syringe and incubated for 8 hours at room temperature. Then, the microfluidic cavities are washed by ethanol followed by PBS buffer. Before cell seeding, tissue culture media is injected into chambers of the device to read the background impedance value (Z0). […]
At the same time, the impedance (Zx) is measured in real-time with a time resolution of 5 minutes, for example. […]

`COc1cc2c(c(OC)c1OC)-c1ccc(OC)c(=O)cc1[C@@H](NC(C)=O)CC2` [colchicine]: for the setting “0.1 μM colchicine, Vero-E6 cells, control tc=4.2±0.17 h”, the “time point at which the cells heal a wound (t0.1; impedance saturation)” value came to 4.6 ± 0.19 h. Moreover, the “time point at which the cells heal a wound (t0.2; impedance saturation)” value (0.2 μM colchicine, Vero-E6 cells, control tc=4.2±0.17 h) was determined as 5.1 ± 0.21 h. Besides, under “0.4 μM colchicine, Vero-E6 cells, control tc=4.2±0.17 h”, the “time point at which the cells heal a wound (t0.4; impedance saturation)” value amounted to 8.2 ± 0.42 h. Also, the “inhibition effect on Vero-E6 cell migration (average speed AS)” value (0.1, 0.2 and 0.4 μM, AS=R×t^−1, FIG. 7B) is on record as “inhibits Vero-E6 cell migration in a drug concentration dependant manner”.
